Data published in US8486968B2, “Compounds” (Boehringer Ingelheim International GmbH, priority 2010, dated 2013).

Key:
mPGES-1 [1] = molecular target: T1, mPGES-1 (Homo sapiens, UniProt O14684); assay: mPGES-1 enzyme assay (HTRF detection of PGE2); format: biochemical; parameters: made in house; host or cells: Rosetta E. coli (membrane/microsome fraction); conditions: recombinant human mPGES-1 microsomes, PGH2 2 μM, Table A; read-out: mPGES-1 inhibitory effect, IC50, enzyme assay
T1 sequence (O14684 1-152): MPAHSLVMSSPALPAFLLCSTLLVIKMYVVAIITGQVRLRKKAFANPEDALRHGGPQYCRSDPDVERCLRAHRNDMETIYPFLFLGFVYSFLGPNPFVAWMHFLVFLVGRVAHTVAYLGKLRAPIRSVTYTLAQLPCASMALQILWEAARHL
Procedure: Microsomes from Rosetta E. coli bacteria expressing recombinant human mPGES-1 can be derived as described below:
Inoculate 5 ml LB with Ampicilin (50 μg/ml) and Chloramphenicol (34 μg/ml) with bacteria from freeze culture. Incubate 8 h at 37° C. with 200 rpm. Thereafter, inoculate 500-1000 ml LB containing Amp and Chloro with the 5 ml on culture and grow to OD640 of 0.8-1.0. Chill the culture to +4° C. before induction. Induce the culture with IPTG at a final concentration of 400 μM. Express the protein at room temp 18-23° C. with 200 rpm shaking over night.
The following steps can be performed on the following day: • 1. Spin down the cells in 250 ml centrifuge flasks for 15 min at 7000 rpm (Beckmann Coulte Avanti J-E centrifuge) • 2. Dissolve the pellet from 250 ml culture in 12.5 ml homogenization buffer • 3. (15 mM Tris-HCL pH8, 1 mM EDTA pH8, […], 2.5 mM GSH, 1 Tablet Protease inhibitor per 50 ml buffer) • 4. Disintegrate the cells by sonication, 5×10 seconds at 48% amplitude of a 750 W sonifier • 5. Add 2.5 ml MgCl2 (100 mM) and DNase 12.5 μl (0.8 mg/ml) and incubate on ice for 30 min • 6. Spin down the bacteria debris and save the supernatant, 7000 rpm for 15 min • 7. Isolate the protein containing membranes in the supernatant by ultracentrifugation 120000×g for 2 hour at 4° C. (Sorvall T880 rotor). • 8. Discard the supernatant and dissolve the pellet in 20 mM Potassium phosphate buffer pH 7.4 (KH2PO4 and K2HPO4) buffer by sonication (5×10 s, 30% of a 50 W sonifier) and aliquot the enzyme and store aliquots at −80° C.
Before each experiment is performed an aliquot of the enzyme is thawed and it can then be dissolved in 0.1 M Potassium phosphate buffer pH7.4 (KH2PO4 and K2HPO4) buffer containing 2.5 mM GSH.
The aim of this assay is the determine the affinity of a test compound for the mPGES-1 enzyme.
47 μl of recombinant human mPGES-1 (˜0.5 μg protein/well) containing microsomal suspension in a buffer containing GSH, (2.5 mmol/L L-Glutathione reduced, dissolved in 0.1 mol/L Phosphat Buffer pH 7.4) is dispensed in a 384-well plate and thereafter 1 μl of the test compound(s) is/are added and incubated for 25 minutes at room temperature. The enzyme reaction is started by the addition of 2 μl PGH2 (final conc. 2 μM) dissolved in water-free Diglyme. After 60 seconds the reaction is terminated by addition of a stop solution containing FeCl2 (10 μL 0.074 mol/l FeCl2). The samples are diluted between 1:25 in PBS (Phosphate Buffered Saline). 10 μl of the diluted samples are transferred to 384-well low volume plate. In order to quantify the amount of PGE2 that has been formed, a homogenous time resolved fluorescent (HTRF) detecting of PGE2 has been performed using a commercially available kit from Cisbio according to the manufactures recommendation. This HTRF-based assay has been described in detail (see: Goedken et al., J Biomol Screen, 2008, 13(7), 619-625). Briefly, the diluted samples are mixed with 5 μl PGE2-d2 conjungate and 5 μl anti-PGE2 cryptate conjungate. After an incubation period of the plates over night, the fluorescence is measured by the use of an appropriate microplate reader.
The fluorescence of Europium cryptate (maxex=307 nm, maxem=620 nm) and d2-PGE2 (maxex=620 nm, maxem=665 nm) are measured.
The extent of the specific HTRF is measured as a ratio of the emission intensity at 665 nm vs. that at 620 nm at an excitation puls of 320 nm. The quantification plate contains also wells with different concentrations of PGE2 as calibration curve for the calculation of the PGE2 concentrations from the HTRF ratio values.
From all mPGES enzyme assay the background is subtracted and the IC50 is calculated over a nonlinear regression with conventional software.

mPGES-1 [2] = molecular target: T1, mPGES-1; assay: A549 cell-based assay (PGE2 formation, IL-1β stimulated, 50% human serum); parameters: host or cells: A549 cells; conditions: A549 cells, IL-1β 5 ng/ml, 20-24 h, Table B, read-out: mPGES-1 inhibitory effect, IC50, cell assay
Procedure: Although the enzymatic assay is a high throughput assay the disadvantage is that it uses a recombinant protein which is not in its natural environment. Accordingly a cellular assay was established in which a cell line of human origin (A549) expressing the mPGES-1 protein was used. In addition in order to mimic the situation in humans in which compounds can be bound to plasma proteins 50% human serum is added in the assay. By having the combination of testing mPGES-1 in a cellular environment and the presence of 50% human serum this assay has a higher relevance to judge the therapeutic potential of a mPGES-inhibitor than the pure enzyme assay.
A549 cells (ATCC: CCL-185) are grown to about 90% confluence in F-12K Nutrient Mixture (Kaighn's Mod. Gibco) containing 10% FBS in a humified incubator at 37° C. and 5% CO2. Cells were detached using Trypsin-EDTA. A549 cells were seeded in a 384-well collagene plate at a density of 7000 cells/well (50 μl) in F-12 medium containing 1% Penicillin-Streptomycin and 50% human serum. The cells were allowed to attach for 3-4 h. After that the cells were incubated for 20-24 h in F-12k medium supplemented with 50% human serum, 1% Penicillin-Streptomycin and containing IL-1β at a final concentration of 5 ng/ml as well as 10 nM arachidonic acid in the presence of a vehicle or a test compound. The total volume is 100 μl.
Concentrations of PGE2 in the cell free medium (10 μl) were measured using a commercially available HTRF kit from Cisbio (as described above). The PGE2 formation in the absence of test compound was taken as 100%.
IC50 values were derived from at 6-8 point titrations using conventional software.

IC50 (mPGES-1 [1]) [nM] | IC50 (mPGES-1 [2]) [nM] | melting point [°C] | Compound
3 | 2 | 172 to 174 | CC(C)(C)C(=O)NCc1ccc(Cl)c(Nc2nc3cc(C(=O)N[C@H]4CC[C@H](C(F)(F)F)CC4)c(N4CCC(C(F)(F)F)CC4)nc3n2CC(F)F)c1Cl [Example 27]
1 | 3 | 189 to 191 | CC(C)(C)C(=O)NCc1ccc(Cl)c(Nc2nc3cc(C(=O)N[C@H]4CC[C@H](C(F)(F)F)CC4)c(N4CCC(C(F)(F)F)CC4)nc3n2CC(N)=O)c1Cl [Example 28]
3 | 1 | 185 to 186 | Cn1c(Nc2c(Cl)ccc(CNC(=O)C(C)(C)C)c2Cl)nc2cc(C(=O)N[C@H]3CC[C@H](C(F)(F)F)CC3)c(N3CCC(C(F)(F)F)CC3)nc21 [Example 30, N-(trans-4-Trifluoromethyl-cyclohexyl)-2-{2,6-dichloro-3-[(2,2-dimethyl-propionylamino)-methyl]-phenylamino}-5-[4-trifluoromethyl-piperidinyl]-3-methyl-3H-imidazo[4,5-b]pyridine-6-carboxamide]
